Assay results from US12398098B2, “Waterborne crosslinker composition” (priority 2020, dated 2025).
Read-outs that look alike come from different tables or passages of the source.

Legend:
[1] = system: mouse embryonic stem (mES) reporter cell lines
Rtkn [2] = experiment: ToxTracker genotoxicity assay, Rtkn-GFP reporter
Rtkn [3] = conditions: mouse
Bscl2 = experiment: ToxTracker genotoxicity assay, Bscl2-GFP reporter
[4] = With S9 rat liver extract, at 25% cytotoxicity, 3 h exposure and 24 h recovery
[5] = With S9 rat liver extract, at 50% cytotoxicity, 3 h exposure and 24 h recovery
[6] = Without S9 rat liver extract, at 10% cytotoxicity, 24 h exposure
[7] = Without S9 rat liver extract, at 25% cytotoxicity, 24 h exposure
[8] = Without S9 rat liver extract, at 50% cytotoxicity, 24 h exposure
[9] = With S9 rat liver extract, at 10% cytotoxicity, 3 h exposure and 24 h recovery
[10] = Bscl2 and Rtkn, absence and presence of S9

Row | Compound | Genotoxicity test result (overall) [1] | Rtkn GFP reporter induction level (Rtkn [2]; [4]) | Rtkn GFP reporter induction level (Rtkn [2]; [5]) | Rtkn GFP reporter induction level (Rtkn [2]; [6]) | Rtkn GFP reporter induction level (Rtkn [2]; [7]) | Rtkn GFP reporter induction level (Rtkn [2]; [8]) | Rtkn GFP reporter induction level (Rtkn [3]) | Bscl 2 GFP reporter induction level (Bscl2; [5]) | Rtkn GFP reporter induction level (Rtkn [2]; [9]) | Bscl 2 GFP reporter induction level (Bscl2; [9]) | Bscl 2 GFP reporter induction level (Bscl2; [4]) | Bscl 2 GFP reporter induction level (Bscl2; [6]) | Bscl 2 GFP reporter induction level (Bscl2; [7]) | Bscl 2 GFP reporter induction level (Bscl2; [8]) | Genotoxicity test result (overall) [1, 10]
1 | CCC(COC(=O)CCN1CC1C)(COC(=O)CCN1CC1C)COC(=O)CCN1CC1C (centres unmarked) [Comp. Ex. 1, trimethylolpropane tris(2-methyl aziridinepropionate), reference compound] | genotoxic | – | – | – | – | – | – | – | – | – | – | – | – | – | –
2 | CCCCOCC(CN1CC1C)OC(=O)NCCCCCCn1c(=O)n(CCCCCCNC(=O)OC(COCCCC)CN2CC2C)c(=O)n(CCCCCCNC(=O)OC(COCCCC)CN2CC2C)c1=O (centres unmarked) [Composition 1] | non-genotoxic | 0.8 | 0.6 | 0.8 | 0.8 | 0.6 | 0.9 | 0.9 | – | – | – | – | – | – | –
3 | CC(CN1CC1C)OC(=O)NCCCCCCn1c(=O)n(CCCCCCNC(=O)OC(C)CN2CC2C)c(=O)n(CCCCCCNC(=O)OC(C)CN2CC2C)c1=O (centres unmarked) [Composition 16] | non-genotoxic | 1.1 | 0.9 | 1.2 | 1.2 | 1.4 | – | 1.2 | 1.2 | 1.2 | 1.3 | 1.2 | 1.3 | 1.3 | –
4 | CCCCC(CC)COCC(CN1CC1C)OC(=O)NCCCCCCn1c(=O)n(CCCCCCNC(=O)OC(COCC(CC)CCCC)CN2CC2C)c(=O)n(CCCCCCNC(=O)OC(COCC(CC)CCCC)CN2CC2C)c1=O (centres unmarked) [Composition 23] | – | – | – | – | – | – | – | – | – | – | – | – | – | – | non-genotoxic
5 | CCCCCCCCCC(=O)OCC(CN1CC1C)OC(=O)NCCCCCCn1c(=O)n(CCCCCCNC(=O)OC(COC(=O)CCCCCCCCC)CN2CC2C)c(=O)n(CCCCCCNC(=O)OC(COC(=O)CCCCCCCCC)CN2CC2C)c1=O (centres unmarked) [Composition 25-2] | – | 1.1 | 1.2 | 1.1 | 1.2 | 1.0 | – | 1.1 | 1.1 | 1.0 | 1.1 | 1.1 | 1.2 | 1.0 | non-genotoxic
6 | CCCCOCC(CN1CC1C)OC(=O)NCCCCCC/N=c1\oc(=O)n(CCCCCCNC(=O)OC(COCCCC)CN2CC2C)c(=O)n1CCCCCCNC(=O)OC(COCCCC)CN1CC1C (centres unmarked) [Composition 27] | – | – | – | – | – | – | – | – | – | – | – | – | – | – | non-genotoxic
7 | CCCCOCC(CN1CC1(C)C)OC(=O)NCCCCCCn1c(=O)n(CCCCCCNC(=O)OC(COCCCC)CN2CC2(C)C)c(=O)n(CCCCCCNC(=O)OC(COCCCC)CN2CC2(C)C)c1=O (centres unmarked) [Compound. 15] | non-genotoxic | 1.2 | 1.3 | 1.2 | 1.2 | 1.2 | – | 1.1 | 1.2 | 1.1 | 1.1 | 1.2 | 1.2 | 1.1 | –
